Converted amounts (≈) assume the structure as drawn. Where two headings read alike, the source gives them in different places.
How the values were obtained:
[1] = Human HepG2 cytotoxicity assay (CellTiter Glo); format: cell-based; conditions: HepG2 cells
[2] = tested on: Dd2^P412L (PfATP4^P412L); test: Drug susceptibility assay for cross-resistance profiling (Fidock Lab), P412L; format: cell-based, Plasmodium falciparum; conditions: Table 3 data set; for EC50: Plasmodium falciparum, DD2, 15-selected line
[3] = tested on: Pf3D7 trophozoite-stage parasites, cytosolic pH (pHcyt); cell-based assay for ATP4 inhibition; test: P. falciparum cytosolic dose response pH assay (BCECF, with concanamycin A); conditions: Plasmodium falciparum, read-out: Pf3D7 pH EC50
[4] = tested on: isolated Pf3D7 trophozoites, [Na+]cyt; test: Measurement of P. falciparum cytosolic Na+ concentration (SBFI); format: cell-based, Plasmodium falciparum; conditions: 1 μM
Method: Measurements were carried out in 96 well plates (excitation wavelengths: 340 and 380 nm; emission wavelength: 515 nm), as described previously. Fluorescence ratio values (340 nm/380 nm) were converted to [Na^+]cyt using a calibration procedure in which parasites were suspended in solutions of varying [Na^+] containing ionophores.

[5] = physchem; conditions: kinetic from dmso stock
[6] = tested on: PfDd2 parasites, 2- or 3-selected bulk cultures; test: EC50 of bulk cultures after rounds of resistance selection; format: cell-based; conditions: Plasmodium falciparum, read-out: bulk culture EC50
Method: To confirm the MOA for the α-azacyclic acetamides against P. falciparum and to obtain potential information about whether or not they bind PfATP4 at an overlapping site with that of KAE609, we undertook resistance selections using PfDd2 parasites using the published cycling drug selection method. , α-Azacyclic acetamides 2 and 3 were chosen as representative examples of the pyrrole- and indole-based series, respectively. […] Additional cycles were performed at 20 × EC50, until resistant parasites were detected based on a fold change in EC50 compared to the parental clonal Dd2 line (Table S3). Resistant parasites were detected in the 2-selections in all 4 flasks after 4 pulses and for 3-selections in 3 flasks after 5 pulses. Clonal lines were generated from each flask, and one clone per flask was selected for WGS and EC50 determination (Tables S4 and S5). WGS analysis identified two single point mutations in PfATP4 that were not present in the original clonal Dd2 parasite line (Tables and S4). P412L was found in three of four flasks containing 2-selected resistance clones, and F917L was identified in all three flasks containing 3-selected clones and in the fourth flask containing 2-selected clones (Table S4). PfATP4 mutations identified by the WGS analysis in parasite lines were verified by PCR of the pfatp4 gene, followed by Sanger sequencing (Figures S5, S6 and Table S6). An additional protein coding gene (ribosomal protein S8e) was mutated in the 2-selections. However, this mutation was identified in only one of four sequenced clones and is therefore unlikely to be related to resistance to 2 (Figure S7). All three resistant clones derived from the 3-selections harbored an identical mutation in a gene (pfcpu) encoding a conserved protein of unknown function, which was absent in the parental line (Figure S8).
Resistant Dd2 parasites were selected using a high-pressure intermittent selection protocol using a previously described method. Selections were set up using 4 flasks per compound starting with approximately 3 × 10^9 parasites per flask (80 mL per flask, 4% hematocrit, 3% parasitemia at the beginning of each pulse, mostly ring-stage parasites via previous sorbitol synchronization. Pulse 1 and 2 (48 h) were conducted at 10xEC50, and subsequent pulses were conducted at 20xEC50. Parasites cleared within 48 h under these conditions. 3-Selections used a total of 4 pulses, while 2-selections required 5 pulses before resistant parasites emerged (Table S3). Culture media was replenished daily for a week after each pulse, then every 2 days with weekly replenishment of blood. Cultures were monitored by microscopy until recrudescence. Clonal parasites were obtained from each flask by limiting dilution and maintained in drug free RPMI-1640 media prior to being analyzed for EC50 shifts. Established clonal lines were aliquoted and stored at −80 °C after suspension in Glycerolyte 57 solution (Baxter Cat no 4A7831).

[7] = tested on: Dd2^L350H (PfATP4^L350H); test: Drug susceptibility assay for cross-resistance profiling (Fidock Lab), L350H; format: cell-based, Plasmodium falciparum; conditions: Table 3 data set; for EC50: Plasmodium falciparum, DD2, 15-selected line
[8] = tested on: P. falciparum NF54^luc parasites; test: Luciferase reporter (LR) / BRRoK assay, PfNF54^luc; format: cell-based; conditions: Plasmodium falciparum, NF54, Hec50, 72 h
[9] = tested on: Dd2-B2 (PfATP4^WT); test: Drug susceptibility assay for cross-resistance profiling (Fidock Lab), parental line; format: cell-based, Plasmodium falciparum; conditions: Plasmodium falciparum, DD2, 72 h, read-out: EC50, Dd2-B2

SMILES	CC50 at 96 h [1] [nM]	EC50 [2] [nM]	EC50 fold-change vs Dd2-B2, Dd2^P412L [2] [fold]	EC50 [3] [nM]	increase in [Na+]cyt (in words) [4]	solubility ([5]; pH 2, simulated gastric fluid) [µM]	solubility ([5]; pH 6.5, aqueous buffer) [µM]	EC50 [7] [nM]	EC50 fold-change vs Dd2-B2, Dd2^L350H [7] [fold]	EC50 [8] [nM]	EC50 [9] [nM]	also measured
Cc1nn(CCNC(=O)Cn2c(C)c(C#N)c3ccccc32)c(C)c1Cl [compound 3, N-(2-(4-chloro-3,5-dimethyl-1H-pyrazol-1-yl)ethyl)-2-(3-cyano-2-methyl-1H-indol-1-yl)acetamide]	> 50000	4100 ± 450	7.6	1500 ± 47	reduced response	25 (≈ 9.25 µg/mL)	25 (≈ 9.25 µg/mL)	3400 ± 320	6.3	720 ± 3.1	540 ± 54	EC50 ([6]; 3-selected Flask 1, after Pulse 2 (10×EC50)): 720 nM; EC50 ([6]; 3-selected Flask 1, after Pulse 3 (20×EC50)): 1200 nM; EC50 ([6]; 3-selected Flask 2, after Pulse 2 (10×EC50)): 840 nM; EC50 ([6]; 3-selected Flask 2, after Pulse 3 (20×EC50)): > 10000 nM; EC50 ([6]; 3-selected Flask 3, after Pulse 2 (10×EC50)): 1000 nM; EC50 ([6]; 3-selected Flask 3, after Pulse 3 (20×EC50)): > 10000 nM; EC50 ([6]; 3-selected Flask 4, after Pulse 2 (10×EC50)): 1100 nM; EC50 ([6]; 3-selected Flask 4, after Pulse 3 (20×EC50)): > 10000 nM
Cc1ccnc(NC(=O)Cn2cccc2-c2nc(-c3ccccc3)cs2)c1 [compound 2, N-(4-methylpyridin-2-yl)-2-(2-(4-phenylthiazol-2-yl)-1H-pyrrol-1-yl)acetamide]	> 50000	34000 ± 1300	89	1600 ± 950	reduced response	99 (≈ 37.1 µg/mL)	3.2 (≈ 1.2 µg/mL)	1600 ± 160	4.2	470 ± 51	380 ± 31	EC50 ([6]; 2-selected Flask 1, after Pulse 3 (20×EC50)): 570 nM; EC50 ([6]; 2-selected Flask 1, after Pulse 4 (20×EC50)): 8400 nM; EC50 ([6]; 2-selected Flask 2, after Pulse 3 (20×EC50)): 580 nM; EC50 ([6]; 2-selected Flask 2, after Pulse 4 (20×EC50)): > 10000 nM; EC50 ([6]; 2-selected Flask 3, after Pulse 3 (20×EC50)): 1100 nM; EC50 ([6]; 2-selected Flask 3, after Pulse 4 (20×EC50)): > 10000 nM; EC50 ([6]; 2-selected Flask 4, after Pulse 3 (20×EC50)): 810 nM; EC50 ([6]; 2-selected Flask 4, after Pulse 4 (20×EC50)): 6600 nM
